This passage reports IC50 results from US9187465B2, “Oxazole tyrosine kinase inhibitors” (Sareum Limited, priority 2007, dated 2015).

Structures are written as SMILES. pIC50: −log10 of the molar value. Where a name gives a salt, the structure may show the parent alone. Some results are limits rather than exact numbers.

Common to all, as to format: biochemical
One experiment concerns the target T1, human FLT4 (Homo sapiens, UniProt P35916).
T1 construct: a construct expressing the human FLT4 (789-1207) with an amino terminal GST tag; host or cells: Sf9 insect cells (baculovirus)
The experiment is described as follows: FLT4 kinase assay (DELFIA enzyme inhibition). The settings on record: read-out: FLT4 IC50. Summed up: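 GST-tagged human FLT4 (789-1207) from Sf9 cells phosphorylates a biotinylated MET (Tyr1253)-derived peptide for 30 min at room temperature, stopped with EDTA. Phosphopeptide is captured on Neutravidin and detected with Eu-labelled anti-phosphotyrosine antibody by time-resolved fluorescence; IC50 from % inhibition curves.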

Another experiment deals with T2, human FLT3 (Homo sapiens, UniProt P36888).
T2 construct: a construct expressing the human FLT3 (564-993) with an amino terminal GST tag; host or cells: Sf9 insect cells (baculovirus)
T2 sequence (P36888 564-993): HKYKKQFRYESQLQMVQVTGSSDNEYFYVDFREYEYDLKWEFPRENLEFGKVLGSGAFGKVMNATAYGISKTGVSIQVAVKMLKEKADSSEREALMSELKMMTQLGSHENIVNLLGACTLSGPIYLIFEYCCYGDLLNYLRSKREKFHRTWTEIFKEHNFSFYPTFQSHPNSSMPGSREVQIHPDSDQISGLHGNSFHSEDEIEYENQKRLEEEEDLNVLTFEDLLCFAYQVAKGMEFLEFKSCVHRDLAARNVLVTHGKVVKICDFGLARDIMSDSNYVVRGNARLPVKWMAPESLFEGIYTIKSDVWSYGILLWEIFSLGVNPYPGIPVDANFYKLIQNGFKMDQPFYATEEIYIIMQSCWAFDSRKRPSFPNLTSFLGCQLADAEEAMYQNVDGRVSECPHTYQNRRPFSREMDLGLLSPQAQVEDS
The experiment is described as follows: FLT3 kinase assay (DELFIA enzyme inhibition). As for the experimental part: A GST-kinase fusion protein of 70 KDa was produced using sf9 baculovirus expression system, with a construct expressing the human FLT3 (564-993) with an amino terminal GST tag. The protein was purified by one-step affinity chromatography using glutathione-agarose.
FLT3 enzyme activity is determined using a Dissociation Enhanced Lanthanide Fluorescent Immunoassay (DELFIA) with a peptide substrate derived from the Gastrin Precursor (Tyr 87) peptide […] with a core sequence: EAYGW.
The amount of phosphorylated peptide produced is detected by means of a phospho-Tyrosine specific Europium-labelled antibody using Time-Resolved Fluorescence at Excitation 360-35 nm and Emission 620-35 nm.
Assay reactions are set up in a 25 uL final volume on a 96 well plate. […] The reaction is allowed to proceed for 30 minutes at room temperature before stopping with 100 μL Stop solution comprising of 100 mM EDTA, 1×BSA blocker in TBS (Perbio) and 0.05% Surfact-Amps20 (Perbio).
The stopped reaction is transferred to a black 96-well Neutravidin-coated plate (Perbio) and incubated for 30 minutes to capture the biotinylated peptide substrate. After washing wells 3 times with 200 uL TBS/T buffer, Anti-Phospho-Tyr-100 antibody labelled with Eu—N1 (Perkin Elmer AD0159) is added to all wells for 60 minutes at room temperature. After a repeat washing step, DELFIA Enhancement solution (Perkin Elmer) is added to all wells for 5 minutes and the fluorescence measured on a plate reader Analyst HT (Molecular Devices).
The % inhibition of the activity is calculated and plotted in order to determine the concentration of test compound required to inhibit 50% of the enzyme activity (IC50).

For the next experiment, the target named is T3, human Aurora A (Homo sapiens, UniProt O14965).
T3 construct: Histidine tag (N); host or cells: Sf9 insect cells (baculovirus)
T3 sequence (O14965 1-403): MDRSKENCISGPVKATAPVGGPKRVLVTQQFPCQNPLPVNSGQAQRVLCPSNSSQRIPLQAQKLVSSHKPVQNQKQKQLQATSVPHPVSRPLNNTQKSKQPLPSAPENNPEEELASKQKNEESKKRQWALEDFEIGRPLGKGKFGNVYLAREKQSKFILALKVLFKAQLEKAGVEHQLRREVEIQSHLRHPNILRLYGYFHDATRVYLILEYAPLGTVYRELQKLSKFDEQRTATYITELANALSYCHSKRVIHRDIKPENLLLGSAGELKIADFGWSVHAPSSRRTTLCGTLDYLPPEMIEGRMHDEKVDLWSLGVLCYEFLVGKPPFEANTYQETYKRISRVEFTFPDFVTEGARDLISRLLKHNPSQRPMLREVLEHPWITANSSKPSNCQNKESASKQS
Briefly: Aurora A kinase assay (DELFIA enzyme inhibition). Conditions: read-out: Aurora A IC50. An outline of the steps: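 DELFIA read-out (time-resolved Eu fluorescence, 620 nm emission) after Neutravidin capture of biotinylated peptide substrate and antibody detection. Reaction: Ni-agarose-purified Aurora A, 30 min at room temperature, stopped with 100 mM EDTA.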

In general, pIC50 refers to the IC50 on a negative log10 scale, so that one unit is a factor of ten.

T1 sequence (P35916 789-1207): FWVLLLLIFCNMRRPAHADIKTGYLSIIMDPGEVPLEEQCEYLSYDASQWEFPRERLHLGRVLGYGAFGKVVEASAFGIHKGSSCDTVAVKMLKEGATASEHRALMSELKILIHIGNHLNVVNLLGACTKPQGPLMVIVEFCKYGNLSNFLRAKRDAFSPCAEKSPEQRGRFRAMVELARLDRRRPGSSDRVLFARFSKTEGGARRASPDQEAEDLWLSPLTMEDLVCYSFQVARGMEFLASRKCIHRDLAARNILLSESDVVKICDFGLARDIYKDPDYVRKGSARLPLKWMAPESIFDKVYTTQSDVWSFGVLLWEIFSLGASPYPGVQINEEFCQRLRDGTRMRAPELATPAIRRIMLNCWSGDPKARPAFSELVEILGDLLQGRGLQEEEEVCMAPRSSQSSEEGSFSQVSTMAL

Consider `CNC(=O)N1CCN(c2ccc(-c3oc(-c4c(F)cccc4F)nc3C(N)=O)cn2)CC1` [Example J-2, 4-(5-(4-carbamoyl-2-(2,6-difluorophenyl)oxazol-5-yl)pyridin-2-yl)-N-methylpiperazine-1-carboxamide], for which the negative logarithm of the IC50 (pIC50) on human FLT4, against human FLT3 and at human Aurora A was greater than 5.00 each time.
As to `COc1ccc(-c2oc(-c3ccccc3F)nc2C(N)=O)cc1` [Example M-3, 2-(2-fluorophenyl)-5-(4-methoxyphenyl)oxazole-4-carboxamide], the values for the pIC50 at human FLT4, at human FLT3 and at human Aurora A were greater than 5.00, greater than 4.00 and greater than 4.00, respectively.
For `COc1ccc(-c2oc(-c3cccc4[nH]ccc34)nc2C(N)=O)cc1` [Example M-4, 2-(1H-indol-4-yl)-5-(4-methoxyphenyl)oxazole-4-carboxamide], the values for the pIC50 on human FLT4, against human FLT3 and on human Aurora A were greater than 5.00, greater than 5.00 and greater than 4.00, respectively.
As for `COc1ccc(-c2oc(-c3cn[nH]c3)nc2C(N)=O)cc1` [Example N-2, 5-(4-methoxyphenyl)-2-(1H-pyrazol-4-yl)oxazole-4-carboxamide], the pIC50 on human FLT4 was greater than 5.00; against human FLT3, greater than 4.00; on human Aurora A, greater than 5.00.
Regarding `COc1ccc(-c2oc(-c3cccc(C(F)(F)F)c3F)nc2C(N)=O)cc1` [Example N-7, 2-(2-fluoro-3-(trifluoromethyl)phenyl)-5-(4-methoxyphenyl)oxazole-4-carboxamide], the negative logarithm of the IC50 (pIC50) at human FLT4, on human FLT3 and on human Aurora A was greater than 4.00 throughout.
Turning to `NC(=O)c1nc(-c2c(F)cccc2F)oc1Nc1cccc(N2CCOCC2)c1` [Example Q-2, 2-(2,6-difluorophenyl)-5-(3-morpholinophenylamino)oxazole-4-carboxamide], the negative-log IC50 (pIC50) on human FLT4, against human FLT3 and at human Aurora A was greater than 5.00 in each case.
Consider `NC(=O)c1nc(-c2c(F)cccc2F)oc1Nc1cccc(OCCN2CCOCC2)c1` [Example Q-10, 2-(2,6-difluorophenyl)-5-(3-(2-morpholinoethoxy)phenylamino)oxazole-4-carboxamide], for which the pIC50 on human FLT4, on human FLT3 and at human Aurora A was greater than 5.00 throughout.
For `NC(=O)c1nc(-c2c(F)cccc2F)oc1Nc1cccc(N2CCNCC2)c1` [Example Q-12, 2-(2,6-difluorophenyl)-5-(3-(piperazin-1-yl)phenylamino)oxazole-4-carboxamide formate salt], the negative logarithm of the IC50 (pIC50) at human FLT4, against human FLT3 and at human Aurora A was greater than 5.00 each time.
In the case of `NC(=O)c1nc(-c2c(F)cccc2F)oc1Nc1ccc(N2CCCCC2)cc1` [Example Q-13, 2-(2,6-difluorophenyl)-5-(4-(piperidin-1-yl)phenylamino)oxazole-4-carboxamide], the results for the negative logarithm of the IC50 (pIC50) at human FLT4, on human FLT3 and on human Aurora A were greater than 5.00, greater than 5.00 and greater than 4.00, respectively.
As to `NC(=O)c1nc(-c2c(F)cccc2F)oc1Nc1ccc(N2CCCNCC2)cc1` [Example Q-15, 5-(4-(1,4-diazepan-1-yl)phenylamino)-2-(2,6-difluorophenyl)oxazole-4-carboxamide], the pIC50 at human FLT4, against human FLT3 and at human Aurora A was greater than 5.00 throughout.
`NC(=O)c1nc(-c2c(F)cccc2F)oc1Nc1ccc(OC2CCNCC2)cc1` [Example Q-16, 2-(2,6-difluorophenyl)-5-(4-(piperidin-4-yloxy)phenylamino)oxazole-4-carboxamide]: the pIC50 on human FLT4, against human FLT3 and at human Aurora A was greater than 5.00 in each case.
Regarding `NC(=O)c1nc(-c2c(F)cccc2F)oc1Nc1ccc(N2CCNC(=O)C2)cc1` [Example Q-19, 2-(2,6-difluorophenyl)-5-(4-(3-oxopiperazin-1-yl)phenylamino)oxazole-4-carboxamide], the pIC50 on human FLT4, against human FLT3 and at human Aurora A was greater than 5.00 in each case.
Turning to `CN(C)C(=O)c1ccc(Nc2oc(-c3c(F)cccc3F)nc2C(N)=O)cc1` [Example Q-20, 2-(2,6-difluorophenyl)-5-(4-(dimethylcarbamoyl)phenylamino)oxazole-4-carboxamide], the pIC50 on human FLT4, at human FLT3 and at human Aurora A was greater than 5.00 in each case.
For the compound `NC(=O)c1nc(-c2c(F)cccc2F)oc1Nc1ccc(C(=O)N2CCCCC2)cc1` [Example Q-21, 2-(2,6-difluorophenyl)-5-(4-(piperidine-1-carbonyl)phenylamino)oxazole-4-carboxamide], the negative logarithm of the IC50 (pIC50) on human FLT4, against human FLT3 and at human Aurora A was greater than 5.00 each time.
Consider `NC(=O)c1nc(-c2c(F)cccc2F)oc1Nc1ccc(C(=O)N2CCNCC2)cc1` [Example Q-22, 2-(2,6-difluorophenyl)-5-(4-(piperazine-1-carbonyl)phenylamino)oxazole-4-carboxamide], for which the negative-log IC50 (pIC50) at human FLT4, against human FLT3 and on human Aurora A was greater than 5.00 each time.
For `NC(=O)c1nc(-c2ccccc2F)oc1Nc1ccc(N2CCOCC2)cc1` [Example Q-23, 2-(2-Fluorophenyl)-5-(4-morpholinophenylamino)oxazole-4-carboxamide], the pIC50 on human FLT4, on human FLT3 and at human Aurora A was greater than 5.00 each time.
Regarding `NC(=O)c1nc(-c2c(F)cccc2F)oc1Nc1ccc(-n2ccnc2)cc1` [Example Q-24, 5-(4-(1H-imidazol-1-yl)phenylamino)-2-(2,6-difluorophenyl)oxazole-4-carboxamide], the negative logarithm of the IC50 (pIC50) on human FLT4, against human FLT3 and at human Aurora A was greater than 5.00 throughout.
As to `NC(=O)c1nc(-c2c(F)cccc2F)oc1Nc1ccc(S(N)(=O)=O)cc1` [Example Q-25, 2-(2,6-difluorophenyl)-5-(4-(sulfonamide)phenylamino)oxazole-4-carboxamide], the negative logarithm of the IC50 (pIC50) on human FLT4, at human FLT3 and at human Aurora A was greater than 5.00 each time.
Turning to `CNS(=O)(=O)c1ccc(Nc2oc(-c3c(F)cccc3F)nc2C(N)=O)cc1` [Example Q-27, 2-(2,6-difluorophenyl)-5-(4-(N′-methylsulfonamide)phenylamino)oxazole-4-carboxamide], the pIC50 at human FLT4, against human FLT3 and on human Aurora A was greater than 5.00 throughout.
Take `NC(=O)c1nc(-c2c(F)cccc2F)oc1Nc1ccc(S(=O)(=O)N2CCOCC2)cc1` [Example Q-29, 2-(2,6-difluorophenyl)-5-(4-(morpholinosulfonyl)phenylamino)oxazole-4-carboxamide]: the pIC50 at human FLT4, against human FLT3 and on human Aurora A was greater than 5.00 in each case.
For `NC(=O)c1nc(-c2c(F)cccc2F)oc1Nc1ccc(-n2cncn2)cc1` [Example Q-30, 5-(4-(1H-1,2,4-triazol-1-yl)phenylamino)-2-(2,6-difluorophenyl)oxazole-4-carboxamide], the negative logarithm of the IC50 (pIC50) was greater than 5.00 on human FLT4, greater than 4.00 on human FLT3 and greater than 5.00 on human Aurora A.
